In US20230213527A1, “COMPOSITIONS AND METHODS FOR POLYPEPTIDE ANALYSIS” (Quantum-Si Incorporated, priority 2021, published 2023):
“Also recorded” adds a separate entry of the source. Square brackets hold non-standard residues; d marks the D form. Ends that are not written are not given here. Cit = NC(=O)NCCC[C@H](N)C(=O)O

Columns and labels:
PS610 = assay: Dynamic single-molecule sequencing, recognition by PS610; format: binding, A. tumefaciens; details: for RS mean PD, recognition of N-terminal phenylalanine: lysine or acetylated lysine downstream
Experimental: The semiconductor chip was placed in the sequencing device and a chip check was performed to test electronic circuit function and to optimize laser coupling alignment. The chip was then removed from the device socket and the chip was washed twice with 50 μL of 70% isopropanol, followed by four washes with 30 μL of wash buffer (50 mM MOPS pH 8.0, 60 mM potassium acetate, 50 mM glucose, 20 mM magnesium acetate, and surfactant mix) through a flow cell attached to the chip. A second chip check was then performed. […] The chip was then washed six times with wash buffer, followed by addition of an imaging solution (wash buffer with 5 mM Trolox and an oxygen scavenging system). The laser was unblocked and the occupancy percentage (target 10-30%, Poisson distributed) was recorded by acquiring a photobleaching signal from a fluorophore attached to the peptide complex during 5 min of laser illumination. […] The laser was then blocked briefly and aminopeptidases were added to the sequencing reaction via the flow cell and mixed thoroughly (final concentration 2-8 μM PhTET2 and/or 20-80 μM PhTET3, as indicated according to the experiment). The laser was then unblocked, and data was recorded for 10 hours. For all runs, 30 μL of mineral oil was added to fluid reservoirs at each port of the flow cell to prevent evaporation during the run.
(§1) The measured signal on-chip comprises various noise components, the most dominant one being due to fluorescent emissions from diffusing recognizers in the reaction chamber. The pulse caller algorithm for a given reaction chamber starts by estimating the statistical properties of this background noise component. Once an estimate within certain error bounds has been established, the algorithm works in an online fashion observing new frames of data as they are generated. At each point in time, the algorithm maintains state indicating whether the signal is due to the background component only or a pulse from a recognizer-NAA interaction is being observed. The state transition from background to pulse is triggered using an edge detection test where the shift in signal is expected to be significant with respect to the background component's statistical distribution. The state transition from pulse to background is triggered when a small window of the most recent frames of the signal appears to conform to the background component's distribution again. The algorithm maintains an updated model of the background component as new background frames are observed. This provides robustness against drift in the signal intensity together with a feedback control loop that maintains a stable optical coupling of the laser into the chip based on any such detected drift. As detected pulses can be due to true recognizer-to-dipeptide interaction events as well as other occasional transient noise spikes, a downstream filter layer is employed to test the significance of pulse events based on their duration, intensity, and noise patterns within the context of the full timeline of the run and the entire dataset of reaction chambers.
Initial regions are determined by performing a sliding window calculation of pulse rate along the time dimension of a series of pulses. Regions with a mean pulse rate >1 pulse/min are then subdivided according to a greedy bisection approach. Here, the pulses on the left and right of each potential split are assessed for statistically significant deviation in any of four separate pulse properties—intensity, bin ratio, pulse duration, and interpulse duration—using a Mann-Whitney U Test. To define RSs, the split point with the lowest p-value for any of the four properties is used to sub-divide the region and the process continues until no regions remain with a candidate split point with p-value <10^−5 in any comparison. In this manner, transitions from one RS to the next in a region of continuous pulsing are determined a priori on the basis of changes in fluorescence properties of pulsing kinetics.

PhTET3 = biological target: T1, PhTET3 (Pyrococcus horikoshii, UniProt O59485); assay: Aminopeptidase cleavage during dynamic sequencing with PhTET3; format: biochemical, P. horikoshii
T1 construct: His tag (inferred: purified as the recognizers, on Ni-NTA); made in house; host or cells: E. coli BL21(DE3)
T1 sequence (O59485 1-354): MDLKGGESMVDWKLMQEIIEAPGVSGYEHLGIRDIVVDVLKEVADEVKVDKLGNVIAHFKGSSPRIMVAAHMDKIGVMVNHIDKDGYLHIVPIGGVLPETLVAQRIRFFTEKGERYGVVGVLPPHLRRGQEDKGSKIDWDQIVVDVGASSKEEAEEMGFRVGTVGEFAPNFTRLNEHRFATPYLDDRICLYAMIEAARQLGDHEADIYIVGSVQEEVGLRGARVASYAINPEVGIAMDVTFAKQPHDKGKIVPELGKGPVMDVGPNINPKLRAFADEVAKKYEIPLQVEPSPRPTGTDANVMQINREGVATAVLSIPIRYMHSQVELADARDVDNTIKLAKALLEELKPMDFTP
Source text: The collected traces consisted of regions of distinct pulsing, which were referred to as recognition segments (RSs), separated by regions lacking recognition pulsing (non-recognition segments, NRSs). Analysis software was developed to automatically identify pulsing regions and transition points within traces (Methods). Traces began with recognition of phenylalanine with a median PD of 2.36 s (FIG. 2D), in agreement with the PD observed for FAA in recognition-only assays. This pattern terminated after aminopeptidase addition (on average 11 min after addition), and was followed by the ordered appearance of two RSs with median PDs of 0.25 s and 0.49 s (FIG. 2D), corresponding to the short and medium PDs obtained in YAA and WAA recognition-only assays.
(§2) A second chip check was then performed. […] Data was recorded for 15 min.

PS961 [1] = assay: NAA recognition-only single-molecule assay on chip with PS961; format: binding, Planctomycetes; details: 250 nM PS961
Source text: To expand the set of recognizable NAAs, N-end rule pathway proteins were investigated as a source of additional recognizers. In a comprehensive screen of diverse ClpS family proteins, a group of ClpS proteins from the bacterial phylum Planctomycetes with native binding to N-terminal leucine, isoleucine, and valine was discovered. […] The median PD of binding to peptides with N-terminal LAA, IAA, and VAA was 1.21, 0.28, and 0.21 s, respectively, in agreement with bulk characterization (FIG. 7C).
as §2
The resulting regions are called recognition segments (RSs).

PS961 [2] = assay: Dynamic single-molecule sequencing, recognition by PS961; format: binding, Planctomycetes; details: for RS mean PD, recognition of N-terminal leucine: tyrosine or phosphotyrosine at position 2
Experimental: The semiconductor chip was placed in the sequencing device and a chip check was performed to test electronic circuit function and to optimize laser coupling alignment. The chip was then removed from the device socket and the chip was washed twice with 50 μL of 70% isopropanol, followed by four washes with 30 μL of wash buffer (50 mM MOPS pH 8.0, 60 mM potassium acetate, 50 mM glucose, 20 mM magnesium acetate, and surfactant mix) through a flow cell attached to the chip. A second chip check was then performed. The laser was then blocked via an integrated software-controlled shutter, peptide complex was added to a final concentration of 1-10 nM and mixed thoroughly, and the chip was incubated for 15 min. The chip was then washed six times with wash buffer, followed by addition of an imaging solution (wash buffer with 5 mM Trolox and an oxygen scavenging system). The laser was unblocked and the occupancy percentage (target 10-30%, Poisson distributed) was recorded by acquiring a photobleaching signal from a fluorophore attached to the peptide complex during 5 min of laser illumination. For NAA recognition-only assays, after peptide loading, labeled recognizer was added to a final concentration of 50 nM PS610, 100 nM PS691, or 250 nM PS961 (as indicated according to the experiment), and data was recorded for 10 hours. For dynamic sequencing assays, after peptide loading, a mixture of labeled recognizers was added to obtain final concentrations of 50 nM PS610, 100 nM PS691, and 250 nM PS961. Data was recorded for 15 min. The laser was then blocked briefly and aminopeptidases were added to the sequencing reaction via the flow cell and mixed thoroughly (final concentration 2-8 μM PhTET2 and/or 20-80 μM PhTET3, as indicated according to the experiment). The laser was then unblocked, and data was recorded for 10 hours. For all runs, 30 μL of mineral oil was added to fluid reservoirs at each port of the flow cell to prevent evaporation during the run.
as §1
Initial regions are determined by performing a sliding window calculation of pulse rate along the time dimension of a series of pulses. Regions with a mean pulse rate >1 pulse/min are then subdivided according to a greedy bisection approach.

PS1223 = assay: Dynamic single-molecule sequencing, recognition by PS1223; format: binding
Experimental: (§3) Sequencing reactions using the recognizers PS610 (FYW), PS1220 (R), and PS1223 (LIV) were performed separately for the QP706 and QP1073 peptide fragments. Each recognizer was labeled with a unique dye and/or unique number of dyes. A scatter plot of bin ratio v. pulse duration is shown for the QP706 peptide fragment in FIG. 18A and for the QP1073 peptide fragment in FIG. 18B. In the plot of FIG. 18A, three clusters corresponding to FLE, LEQ, and RFL segments are visible. […] In the plot of FIG. 18B, two clusters corresponding to FLE and LEQ segments are visible, but there is no cluster corresponding to RFL.
In this example, sequencing reactions were conducted for 4 pairs of unmodified and citrullinated peptides: QP1028 & QP1029, QP1030 & QP1031, QP1032 & QP1033, and QP707 & QP789. […] For the QP1028 & QP1029 and QP1030 & QP1031 pairs, sequencing reactions were conducted using the PS610 (FYW) recognizer. For the QP1032 & QP1033 and QP707 & QP789 pairs, sequencing reactions were conducted using the PS1223 (LIV) recognizer.

PS621 = biological target: T2, PS621 (Kluyveromyces lactis, UniProt O60014, E174T/N105S/N176F/R116K/S153T/V146T); assay: Dynamic single-molecule sequencing, recognition by PS621; format: binding; details: citrulline at position 2
T2 construct: PS621; […]

PS1165 = biological target: T3, PS1165; assay: Dynamic single-molecule sequencing, recognition by PS1165; format: binding; details: lysine or acetylated lysine downstream
T3 construct: PS1165; 511
Experimental: Sequencing reactions using the recognizers PS691 (R), PS610 (FYW), PS961 (LIV), and PS1165 (A) were performed separately for the peptides RLYFKAYPDDD (SEQ ID NO: 825) and RLK{acetyl}FIAYPDDD (SEQ ID NO: 826) (where K{acetyl} is an acetylated lysine). Recognition of the N-terminal phenylalanine and alanine residues preceding lysine or acetyl-lysine by PS610 and PS1165, respectively, was observed, with distinct pulse durations depending on whether the peptide contained lysine (F=1.4 s, A=1.3 s; FIG. 16A) or acetylated lysine (F=1.8 s, A=2.2 s; FIG. 16B). Recognition of N-terminal phenylalanine occurred with RS mean PD of 1.4 s for FAK and 1.8 s for FAK{acetyl }. Recognition of N-terminal alanine occurred with RS mean PD of 1.3 s for AK and 2.2 s for AK{acetyl}.

PS691 = details: tyrosine or phosphotyrosine at position 3
Experimental: The semiconductor chip was placed in the sequencing device and a chip check was performed to test electronic circuit function and to optimize laser coupling alignment. The chip was then removed from the device socket and the chip was washed twice with 50 μL of 70% isopropanol, followed by four washes with 30 μL of wash buffer (50 mM MOPS pH 8.0, 60 mM potassium acetate, 50 mM glucose, 20 mM magnesium acetate, and surfactant mix) through a flow cell attached to the chip. A second chip check was then performed. […] The laser was unblocked and the occupancy percentage (target 10-30%, Poisson distributed) was recorded by acquiring a photobleaching signal from a fluorophore attached to the peptide complex during 5 min of laser illumination. For NAA recognition-only assays, after peptide loading, labeled recognizer was added to a final concentration of 50 nM PS610, 100 nM PS691, or 250 nM PS961 (as indicated according to the experiment), and data was recorded for 10 hours. […] Data was recorded for 15 min. […]
The measured signal on-chip comprises various noise components, the most dominant one being due to fluorescent emissions from diffusing recognizers in the reaction chamber. […] This provides robustness against drift in the signal intensity together with a feedback control loop that maintains a stable optical coupling of the laser into the chip based on any such detected drift. […]

PS1220 = biological target: T4, PS1220 (Kluyveromyces lactis, UniProt O60014, E169T/E174T/I162E/N105S/N176F/R116K/S153T/V146L); assay: Dynamic single-molecule sequencing, recognition by PS1220; format: binding; details: vimentin peptide fragments
T4 construct: PS1220; 566
T4 sequence (O60014 with tags, fused parts or gaps N105S/R116K/V146L/S153T/I162E/E169T/E174T/N176F): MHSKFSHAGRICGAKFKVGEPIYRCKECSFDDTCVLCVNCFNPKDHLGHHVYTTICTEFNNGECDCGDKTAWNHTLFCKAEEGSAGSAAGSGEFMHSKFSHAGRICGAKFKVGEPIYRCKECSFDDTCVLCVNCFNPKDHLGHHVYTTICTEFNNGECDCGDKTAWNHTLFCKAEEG
Experimental: as §3
Results from additional sequencing reactions performed using the recognizers PS610 (FYW), PS1220 (R), and PS1223 (LIV) and the QP706 and QP1073 peptide fragments are shown in FIGS. 19A-19D and 20A-20D. Traces from the QP706 reactions are shown in FIGS. 19A-19B, and corresponding scatter plots of intensity v. bin ratio are shown in FIGS. 19C-19D. […] Traces from the QP1073 reactions are shown in FIGS. 20A-20B, and the corresponding scatter plots of intensity v. bin ratio are shown in FIGS. 20C-20D.

PS1223, sequence (as listed by the source): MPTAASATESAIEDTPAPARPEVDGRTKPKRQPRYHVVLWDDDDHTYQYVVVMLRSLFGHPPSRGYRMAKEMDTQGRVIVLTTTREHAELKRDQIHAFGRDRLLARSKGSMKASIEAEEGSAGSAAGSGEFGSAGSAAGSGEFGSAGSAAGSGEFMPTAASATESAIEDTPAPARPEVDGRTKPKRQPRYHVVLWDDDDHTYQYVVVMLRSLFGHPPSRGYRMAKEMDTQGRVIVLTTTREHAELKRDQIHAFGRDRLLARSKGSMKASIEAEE
PS961, sequence (as listed by the source): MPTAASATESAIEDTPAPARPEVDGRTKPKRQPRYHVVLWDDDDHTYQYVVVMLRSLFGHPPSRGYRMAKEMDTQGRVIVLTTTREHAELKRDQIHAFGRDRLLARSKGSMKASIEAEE
T3 sequence (Q13490 with tags, fused parts or gaps): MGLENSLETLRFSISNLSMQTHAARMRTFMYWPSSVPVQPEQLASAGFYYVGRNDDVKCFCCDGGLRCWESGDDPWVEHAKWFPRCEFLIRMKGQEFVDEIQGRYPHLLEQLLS
T2 sequence (O60014 other isoform, or with tags, fused parts or gaps N105S/R116K/V146T/S153T/E174T/N176F): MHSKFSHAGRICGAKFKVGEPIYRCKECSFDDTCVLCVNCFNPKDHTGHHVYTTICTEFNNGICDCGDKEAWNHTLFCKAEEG

## FAAWAAYAA [FAAWAAYAAAADDD]
PS610; PS610, PhTET3 added after 15 minutes
  Median PD, recognition of phenylalanine (first RS): 2.36 s
PS610; PS610 with PhTET3
  Median PD, first RS appearing after phenylalanine: 0.25 s
  Median PD, second RS appearing after phenylalanine: 0.49 s
PhTET3
  Termination of phenylalanine recognition pattern after aminopeptidase addition (average): 11 min

## IAA: peptide with N-terminal IAA; in b185 the N-terminal IAA state of LAQFASIAAYASDDD (not fully specified (C-terminus); also: C-terminal azidolysine conjugated to DNA-streptavidin linker)
PS961 [1]
  Median PD of binding: 0.28 s
PS961 [2]; peptide LAQFASIAAYASDDD, PS610 and PS961, PhTET2 and PhTET3
  Median PD: 0.25 s

## LCitLAFAYPDDDK (L[Cit]LAFAYPDDDK) [QP789]
PS1223; recognizer PS1223, recognition of the N-terminal amino acid
  Pulse Width: 0.92 s
PS961 [2]; arginine or citrulline at position 2
  Median PD of recognition of N-terminal leucine by PS961: 0.78 s
PS621
  N-terminal arginine recognition by PS621: eliminated

## RLK{acetyl}FIAYPDDD (RLK(Ac)FIAYPDDD-NH2; also: C-terminal azidolysine (general statement for all synthetic peptides)) [FAK{acetyl }, peptide containing acetylated lysine]
PS1165
  RS mean PD, recognition of N-terminal alanine: 2.2 s
PS610
  RS mean PD, recognition of N-terminal phenylalanine: 1.8 s

## RLYFIAYPDDD
PS961 [2]
  RS mean PD, recognition of N-terminal leucine: 2.45 s
PS691
  RS mean PD, recognition of N-terminal arginine: 0.9 s
PS610
  Recognition of Y or pY by PS610 between L and F: Y recognition

## RLYFKAYPDDD (FAK) [peptide containing lysine]
PS1165
  RS mean PD, recognition of N-terminal alanine: 1.3 s
PS610
  RS mean PD, recognition of N-terminal phenylalanine: 1.4 s

## RLpYFIAYPDDD
PS961 [2]
  RS mean PD, recognition of N-terminal leucine: 3.4 s
PS691
  RS mean PD, recognition of N-terminal arginine: 0.45 s
PS610
  Recognition of Y or pY by PS610 between L and F: not recognized

## VCitFLEQQNK (V[Cit]FLEQQNK) [QP1073, citrullinated peptide fragment of vimentin]
PS1220
  Recognition of arginine / citrulline residue by PS1220: did not recognize; also recorded: does not recognize

## VRFLEQQNK [QP706, peptide fragment of vimentin]
PS1220
  Recognition of arginine / citrulline residue by PS1220: recognized; also recorded: recognition
PS1223; vimentin peptide fragments
  Recognition of leucine (L) residue by PS1223: recognized; also recorded: recognition
PS610; vimentin peptide fragments
  Recognition of phenylalanine (F) residue by PS610: recognized; also recorded: recognition
